Results taken from US6111080A, “Monoclonal antibodies” (Washington University, priority 1993, dated 2000).

System: RGD-binding receptor on PMN (B6H12 antigen, heterodimer of 140 kd and 105 kd)
Experiment: Cytochrome c-RGDS binding assay (inhibition of 125I-cc-RGDS specific binding to PMN)
Parameters: species or system human
Conditions: unlabelled inhibitor 500 μg/ml; 40 μg 125I-cc-RGDS, 1.0 × 10^6 PMN, 5,000 units catalase in 1 ml, 30 min at 37° C.; relative to cc-C
Protocol: Cytochrome c-RGDS was radioiodinated by chloroglycoluril [Markwell and Fox, Biochemistry 17, 4807-4817 (1978)] for 15 min at 0° C. PMN (5.0×10^5) in HBSS^++ -1% OVA were incubated with 10 μg of radiolabelled cc-RGDS in the presence of 5K U/ml of catalase and 293 μg of unlabelled cc-C in a final volume of 250 μl. The reaction mixtures were incubated in 1.5 ml Eppendorf tubes for 30 min at 37° C. The mixtures were overlayered on Versilube (General Electric) and centrifuged at 12,000×g to assess pellet associated radioactivity. Specific binding was determined by subtracting the radioactivity bound in the presence of […] of unlabelled cc-RGDS from the total radioactivity. Unlabelled cc-C was included in the reaction to control for any binding due to cytochrome c and not specifically due to the RGDS moiety. For inhibition tests, the various inhibitors were included in the reaction at the indicated concentrations. Antibodies were incubated with the PMN at the indicated concentrations for 15 min at room temperature prior to the addition of the other reactants.
^a PMN (1.0 × 10^6) were incubated with 40 μg of ^12
Icc-RGDS with the indicated concentrations of unlabelled inhibitors in th
presence of 5,000 units of catalase in 1 ml for 30 min at 37° C.
The PMN were centrifuged through oil and the pelletassociated counts
assessed. […]
^b Calculated from the mean cpm's. […]

% I (percent inhibition of cc-RGDS specific binding to PMN): 79.6%
Substance: GRGDSC
